Measured values published in US20110190235A1, “BORON-CONTAINING SMALL MOLECULES AS ANTIPROTOZOAL AGENTS” (Anacor Pharmaceuticals, Inc., priority 2009, published 2011).
Values after ≈ are worked out from the molar mass of the structure shown. Read-outs that look alike come from different tables or passages of the source.

Experiments:
[1] = test system: bloodstream-form trypanosome T. brucei brucei 427 strain; experiment: Trypanosoma brucei brucei high-throughput in vitro drug sensitivity assay (resazurin); assay type: cell-based; conditions: for Selectivity Index (L929 IC50 / T. b. brucei IC50): T. b. brucei vs L929; for IC50: Trypanosoma brucei, 72 hrs incubation
[2] = L929 cytotoxicity evaluation (resazurin); assay type: cell-based; conditions: mouse, L929 mouse fibroblast cells; 72 hrs incubation; read-out: Cytotox L-929 IC50
Experimental: For evaluation of compound effects on mammalian cells, L929 mouse fibroblast cells were used. Cells were maintained as adherent cultures in T-25 vented cap flasks in a humidified incubator at 37° C. in the presence of 5% CO2. Culture media was D-MEM supplemented with 10% fetal bovine serum and 1% penicillin/streptomycin. L929 cells were maintained below confluent levels by sub-culturing at 1:10 dilution twice weekly using 0.05% trypsin for detachment.
Sub-confluent L929 cells were trypsinized, resuspended in fresh media and 10 uL was counted using hemocytometer to determine cell concentration. Cells were diluted to 1×10^4/mL in DMEM, dispensed (100 uL) into 96-well plates using a Multidrop 384 dispenser and allowed to attach overnight. Spent media was replaced with 99.5 uL fresh D-MEM and compounds to be tested were serially diluted in DMSO and 0.5 uL added using a Biomek NX liquid handler. Plates were incubated with compounds for 72 hrs at 37° C. with 5% CO2. Resazurin (20 uL of 12.5 mg/ml stock) from Sigma-Aldrich was added to each well and plates were incubated for an additional 3-4 hrs. Assay plates were read using an EnVision plate reader at an excitation wavelength of 544 nm and emission of 590 nm. Single data points were used to generate sigmoidal dose response curves and determine IC50 values using XLfit curve fitting software from IDBS (Guildford, UK).

Row | Compound | IC50 ([1]; read-out: T.b. brucei IC50) | Selectivity Index (L929 IC50 / T. b. brucei IC50) [1] | IC50 ([1]; read-out: T. b. brucei IC50) | IC50 at 72 h [2]
1 | COc1cccc(C(=O)Nc2ccc3c(c2)B(O)OC3C)c1 (stereo not drawn) [compound 6, N-(1-Hydroxy-3-methyl-1,3-dihydro-benzo[c][1,2]oxaborol-6-yl)-3-methoxy-benzamide] | 0.046 µg/mL | >217 | 155 nM | > 10 µg/mL
2 | CC1OB(O)c2cc(NC(=O)c3cccc(F)c3)ccc21 (stereo not drawn) [compound 10, 3-Fluoro-N-(1-hydroxy-3-methyl-1,3-dihydro-benzo[c][1,2]oxaborol-6-yl)-benzamide] | 0.037 µg/mL | >207 | 130 nM | > 10 µg/mL
3 | CC1OB(O)c2cc(NC(=O)c3cccc(Cl)c3)ccc21 (stereo not drawn) [compound 11, 3-Chloro-N-(1-hydroxy-3-methyl-1,3-dihydro-benzo[c][1,2]oxaborol-6-yl)-benzamide] | 0.036 µg/mL | 168 | 119 nM | 6.06 µg/mL (≈ 20.1 µM)
4 | CC1OB(O)c2cc(NC(=O)c3ccccc3I)ccc21 (stereo not drawn) [compound 15, N-(1-Hydroxy-3-methyl-1,3-dihydro-benzo[c][1,2]oxaborol-6-yl)-2-iodo-benzamide] | 0.068 µg/mL | 36 | 173 nM | 2.45 µg/mL (≈ 6.23 µM)
5 | CC1OB(O)c2cc(NC(=O)c3ccc(F)cc3Br)ccc21 (stereo not drawn) [compound 16, 2-Bromo-4-fluoro-N-(1-hydroxy-3-methyl-1,3-dihydro-benzo[c][1,2]oxaborol-6-yl)-benzamide] | 0.107 µg/mL | 29 | 294 nM | 3.06 µg/mL (≈ 8.41 µM)
6 | O=C(Nc1ccc2c(c1)B(O)OC2C1CCCC1)c1ccccc1Cl (stereo not drawn) [compound 18, 2-Chloro-N-(3-cyclopentyl-1-hydroxy-1,3-dihydro-benzo[c][1,2]oxaborol-6-yl)-benzamide] | 4.22 µg/mL | 2 | 11900 nM | 9.29 µg/mL (≈ 26.1 µM)
7 | O=C(Nc1ccc2c(c1)B(O)OC2C1CCCC1)c1ccc(F)cc1 (stereo not drawn) [compound 20, N-(3-Cyclopentyl-1-hydroxy-1,3-dihydro-benzo[c][1,2]oxaborol-6-yl)-4-fluoro-benzamide] | > 5 µg/mL |  | > 14500 nM | > 10 µg/mL
8 | CC(=O)Nc1ccc2c(c1)B(O)OC2C1CCCC1 (stereo not drawn) [compound 21, N-(3-Cyclopentyl-1-hydroxy-1,3-dihydro-benzo[c][1,2]oxaborol-6-yl)-acetamide] | > 5 µg/mL |  | > 19300 nM | > 10 µg/mL
9 | CC(C)CC1OB(O)c2cc(NC(=O)c3ccccc3C(F)(F)F)ccc21 (stereo not drawn) [compound 22, N-(1-Hydroxy-3-isobutyl-1,3-dihydro-benzo[c][1,2]oxaborol-6-yl)-2-trifluoromethyl-benzamide] | 0.866 µg/mL | >12 | 2300 nM | > 10 µg/mL
10 | CC(C)CC1OB(O)c2cc(NC(=O)c3ccc(F)cc3)ccc21 (stereo not drawn) [compound 24, 4-Fluoro-N-(1-hydroxy-3-isobutyl-1,3-dihydro-benzo[c][1,2]oxaborol-6-yl)-benzamide] | > 5 µg/mL |  | > 15300 nM | > 10 µg/mL
11 | CC(C)CC1OB(O)c2cc(NC(=O)c3ccccc3Cl)ccc21 (stereo not drawn) [compound 25, 2-Chloro-N-(1-hydroxy-3-isobutyl-1,3-dihydro-benzo[c][1,2]oxaborol-6-yl)-benzamide] | > 5 µg/mL |  | > 14600 nM | > 10 µg/mL
12 | Cc1ccccc1C(=O)Nc1ccc2c(c1)B(O)OC2(C)C [compound 27, N-(1-Hydroxy-3,3-dimethyl-1,3-dihydro-benzo[c][1,2]oxaborol-6-yl)-2-methylbenzamide] | 2.24 µg/mL |  |  | > 10 µg/mL
13 | CC1(C)OB(O)c2cc(NC(=O)c3cccc(C(F)(F)F)c3)ccc21 [compound 35, N-(1-Hydroxy-3,3-dimethyl-1,3-dihydro-benzo[c][1,2]oxaborol-6-yl)-3-trifluoromethyl-benzamide] | 2.74 µg/mL |  |  | > 10 µg/mL
14 | CC1(C)OB(O)c2cc(NC(=O)c3ccccc3I)ccc21 [compound 40, N-(1-Hydroxy-3,3-dimethyl-1,3-dihydro-benzo[c][1,2]oxaborol-6-yl)-2-iodo-benzamide] | 0.599 µg/mL |  |  | > 10 µg/mL
15 | COc1ccccc1C(=O)Nc1ccc2c(c1)B(O)OC2(C)C [compound 46, N-(1-Hydroxy-3,3-dimethyl-1,3-dihydro-benzo[c][1,2]oxaborol-6-yl)-2-methoxy-benzamide] | 3.01 µg/mL |  |  | > 10 µg/mL
16 | COc1cccc(C(=O)Nc2ccc3c(c2)B(O)OC3(C)C)c1 [compound 47, N-(1-Hydroxy-3,3-dimethyl-1,3-dihydro-benzo[c][1,2]oxaborol-6-yl)-3-methoxy-benzamide] | 2.35 µg/mL |  |  | > 10 µg/mL
17 | COc1ccc(C(=O)Nc2ccc3c(c2)B(O)OC3(C)C)cc1 [compound 48, N-(1-Hydroxy-3,3-dimethyl-1,3-dihydro-benzo[c][1,2]oxaborol-6-yl)-4-methoxy-benzamide] | 1.11 µg/mL | >9 | 3570 nM | > 10 µg/mL
18 | CCOc1ccccc1C(=O)Nc1ccc2c(c1)B(O)OC2(C)C [compound 49, 2-Ethoxy-N-(1-hydroxy-3,3-dimethyl-1,3-dihydro-benzo[c][1,2]oxaborol-6-yl)-benzamide] | > 5 µg/mL |  |  | > 10 µg/mL
19 | CC1(C)OB(O)c2cc(NC(=O)c3ccccc3OC(F)(F)F)ccc21 [compound 51, N-(1-Hydroxy-3,3-dimethyl-1,3-dihydro-benzo[c][1,2]oxaborol-6-yl)-2-trifluoromethoxy-benzamide] | 1.15 µg/mL |  |  | > 10 µg/mL
20 | CC1(C)OB(O)c2cc(NC(=O)c3cccc(OC(F)(F)F)c3)ccc21 [compound 52, N-(1-Hydroxy-3,3-dimethyl-1,3-dihydro-benzo[c][1,2]oxaborol-6-yl)-3-trifluoromethoxy-benzamide] | 2.27 µg/mL |  |  | > 10 µg/mL

More lines, main results first:

Row | IC50 ([1]; read-out: T.b. brucei IC50) | Compound | Selectivity Index (L929 IC50 / T. b. brucei IC50) [1] | IC50 ([1]; read-out: T. b. brucei IC50) | IC50 at 72 h [2]
21 | 3.17 µg/mL | Cc1cccc(C(=O)Nc2ccc3c(c2)B(O)OC3(C)C)c1 [compound 28, N-(1-Hydroxy-3,3-dimethyl-1,3-dihydro-benzo[c][1,2]oxaborol-6-yl)-3-methyl-benzamide] |  |  | > 10 µg/mL
22 | 3.62 µg/mL | Cc1ccc(C(=O)Nc2ccc3c(c2)B(O)OC3(C)C)cc1 [compound 29, N-(1-Hydroxy-3,3-dimethyl-1,3-dihydro-benzo[c][1,2]oxaborol-6-yl)-4-methyl-benzamide] |  |  | > 10 µg/mL
23 | 0.427 µg/mL | CCc1ccc(C(=O)Nc2ccc3c(c2)B(O)OC3(C)C)cc1 [compound 30, 4-Ethyl-N-(1-hydroxy-3,3-dimethyl-1,3-dihydro-benzo[c][1,2]oxaborol-6-yl)-benzamide] |  |  | > 10 µg/mL
24 | 0.397 µg/mL | CCCc1ccc(C(=O)Nc2ccc3c(c2)B(O)OC3(C)C)cc1 [compound 31, N-(1-Hydroxy-3,3-dimethyl-1,3-dihydro-benzo[c][1,2]oxaborol-6-yl)-4-propyl-benzamide] |  |  | > 10 µg/mL
25 | 0.349 µg/mL | CCCCc1ccc(C(=O)Nc2ccc3c(c2)B(O)OC3(C)C)cc1 [compound 32, 4-Butyl-N-(1-hydroxy-3,3-dimethyl-1,3-dihydro-benzo[c][1,2]oxaborol-6-yl)-benzamide] |  |  | > 10 µg/mL
26 | 4.05 µg/mL | CC1(C)OB(O)c2cc(NC(=O)c3ccc(C(F)(F)F)cc3)ccc21 [compound 36, N-(1-Hydroxy-3,3-dimethyl-1,3-dihydro-benzo[c][1,2]oxaborol-6-yl)-4-trifluoromethyl-benzamide] |  |  | > 10 µg/mL
27 | 1.42 µg/mL | CC1(C)OB(O)c2cc(NC(=O)c3ccccc3F)ccc21 [compound 37, 2-Fluoro-N-(1-hydroxy-3,3-dimethyl-1,3-dihydro-benzo[c][1,2]oxaborol-6-yl)-benzamide] |  |  | > 10 µg/mL
28 | > 5 µg/mL | CC1(C)OB(O)c2cc(NC(=O)c3cccc(F)c3)ccc21 [compound 41, 3-Fluoro-N-(1-hydroxy-3,3-dimethyl-1,3-dihydro-benzo[c][1,2]oxaborol-6-yl)-benzamide] |  |  | > 10 µg/mL
29 | 2.12 µg/mL | CC1(C)OB(O)c2cc(NC(=O)c3cccc(Cl)c3)ccc21 [compound 42, 3-Chloro-N-(1-hydroxy-3,3-dimethyl-1,3-dihydro-benzo[c][1,2]oxaborol-6-yl)-benzamide] |  |  | > 10 µg/mL
30 | 2.2 µg/mL | CC1(C)OB(O)c2cc(NC(=O)c3cccc(Br)c3)ccc21 [compound 43, 3-Bromo-N-(1-hydroxy-3,3-dimethyl-1,3-dihydro-benzo[c][1,2]oxaborol-6-yl)-benzamide] |  |  | > 10 µg/mL
31 | 3.64 µg/mL | CC1(C)OB(O)c2cc(NC(=O)c3ccc(Cl)cc3)ccc21 [compound 45, 4-Chloro-N-(1-hydroxy-3,3-dimethyl-1,3-dihydro-benzo[c][1,2]oxaborol-6-yl)-benzamide] |  |  | > 10 µg/mL
32 | 1.4 µg/mL | CCCCCOc1ccc(C(=O)Nc2ccc3c(c2)B(O)OC3(C)C)cc1 [compound 50, N-(1-Hydroxy-3,3-dimethyl-1,3-dihydro-benzo[c][1,2]oxaborol-6-yl)-4-pentyloxy-benzamide] |  |  | > 10 µg/mL
